Earlier results, collected in article PMC7330163 (Pharmacology Research & Perspectives, 2020).

Conditions: cited from earlier work

CCCNS(=O)(=O)Nc1ncnc(OCCOc2ncc(Br)cn2)c1-c1ccc(Br)cc1 [macitentan]
aqueous solubility: low aqueous solubility
